The results in this text go back to patent US20230313199A1, “TARGET FOR MODULATING BODY MASS” (Massachusetts Institute of Technology, priority 2020, published 2023).

The structures appear in SMILES notation.

The assay deals with THP-1 cells. Briefly: Inhibition of heme-stimulated thermogenesis (FPT) in THP-1 cells. Format: cell-based, human. Conditions: 4 μM thapsigargin 2 hours, then 40 μM heme one hour. The protocol:
FIGS. 5A-5F show MFSD7C and heme regulate thermogenesis through SERCA2b in THP-1 cells. […] 30 hours later, MG132 was added into half of the cells and the other half was not treated. Another 35 hours later, some cells were treated with 40 μM heme for 1 hour before lysis. Cell lysates were immunoprecipitated with anti-FLAG antibody, and eluted, followed by anti-HA immunoprecipitation and elution. Total cell lysate and elute were subjected to Western blotting and probed with anti-SERCA2b or anti-MFSD7C antibodies. Shown are representative data from one of three experiments. […] 24 hrs later, cells were either not treated or treated with 10 μM MG132 for either 6 or 12 hours. The cells were lysed and subjected to FLAG pull-down and blotted with anti-MFSD7C, anti-SERCA2b and anti-ubiquitin antibodies. Shown are representative data from one of three experiments. […] Parental THP-1 cells were either not treated or treated with heme before lysis. Shown are representative data from one of four experiments. […]
FIGS. 16A-16F show Co-localization of MFSD7C and SERCA2b. […] Co-localization between MFSD7C and SERCA2b was quantified. […] P-values were calculated using unpaired t-test (***p<0.05). […]
In the second approach, we used fluorescent polymeric thermometer (FPT), which we synthesized in-house (see above). […] Then the fluorescence intensities were determined by a flow cytometer.

In the case of `C/C=C(/C)C(=O)O[C@H]1C(C)=C2[C@H]([C@@H]1OC(=O)CCCCCCC)[C@@](C)(OC(C)=O)C[C@H](OC(=O)CCC)[C@@]1(O)[C@H]2OC(=O)[C@@]1(C)O` [thapsigargin], the heme-stimulated thermogenesis entry is listed as “mostly inhibited”.
